PubChem BioAssay (NCI)
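At the GI50, growth is halved. TGI marks complete inhibition of growth.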

Assays:
Test in all cases: NCI anticancer screen, dose series, 384-well format
786-0 renal = system: 786-0 renal
A498 renal = system: A498 renal
A549 NSCLC = system: A549 NSCLC
ACHN renal = system: ACHN renal
BT-549 breast = system: BT-549 breast
CAKI-1 renal = system: CAKI-1 renal
CCRF-CEM leukemia = system: CCRF-CEM leukemia
DU-145 prostate = system: DU-145 prostate
EKVX NSCLC = system: EKVX NSCLC
HCT-116 colon = system: HCT-116 colon
HCT-15 colon = system: HCT-15 colon
HOP-62 NSCLC = system: HOP-62 NSCLC
HOP-92 NSCLC = system: HOP-92 NSCLC
HS 578T breast = system: HS 578T breast
HT29 colon = system: HT29 colon
IGROV1 ovarian = system: IGROV1 ovarian
K-562 leukemia = system: K-562 leukemia
KM12 colon = system: KM12 colon
LOX IMVI melanoma = system: LOX IMVI melanoma
M14 melanoma = system: M14 melanoma
MALME-3M melanoma = system: MALME-3M melanoma
MCF7 breast = system: MCF7 breast
MDA-MB-231 breast = system: MDA-MB-231 breast
MDA-MB-435 melanoma = system: MDA-MB-435 melanoma
MDA-MB-468 breast = system: MDA-MB-468 breast
NCI-H226 lung = system: NCI-H226 lung
NCI-H23 lung = system: NCI-H23 lung
NCI-H322M lung = system: NCI-H322M lung
NCI-H522 lung = system: NCI-H522 lung
NCI/ADR-RES ovarian = system: NCI/ADR-RES ovarian
OVCAR-3 ovarian = system: OVCAR-3 ovarian
OVCAR-4 ovarian = system: OVCAR-4 ovarian
OVCAR-5 ovarian = system: OVCAR-5 ovarian
OVCAR-8 ovarian = system: OVCAR-8 ovarian
PC-3 prostate = system: PC-3 prostate
RPMI-8226 leukemia = system: RPMI-8226 leukemia
RXF 393 renal = system: RXF 393 renal
SF-268 CNS = system: SF-268 CNS
SF-295 CNS = system: SF-295 CNS
SF-539 CNS = system: SF-539 CNS
SK-MEL-2 melanoma = system: SK-MEL-2 melanoma
SK-MEL-28 melanoma = system: SK-MEL-28 melanoma
SK-OV-3 ovarian = system: SK-OV-3 ovarian
SN12C renal = system: SN12C renal
SNB-75 CNS = system: SNB-75 CNS
SW-620 colon = system: SW-620 colon
T-47D breast = system: T-47D breast
U251 glioblastoma = system: U251 glioblastoma
UACC-257 melanoma = system: UACC-257 melanoma
UACC-62 melanoma = system: UACC-62 melanoma
UO-31 renal = system: UO-31 renal

## CC(=O)C1(O)Cc2c(O)c3c(c(O)c2C(OC2CC(N)C(O)C(C)O2)C1)C(=O)c1ccccc1C3=O (stereo not given)
786-0 renal
  GI50: 23.4 nM
  TGI: 112 nM
A498 renal
  GI50: 17.5 nM
  TGI: 146 nM
A549 NSCLC
  GI50: 13.8 nM
  TGI: 133 nM
ACHN renal
  GI50: 21.3 nM
  TGI: 89.6 nM
BT-549 breast
  GI50: 20.1 nM
  TGI: 94.4 nM
CAKI-1 renal
  GI50: 30.9 nM
  TGI: 169 nM
CCRF-CEM leukemia
  TGI: 15.6 nM
DU-145 prostate
  GI50: 11.3 nM
  TGI: 136 nM
EKVX NSCLC
  GI50: 150 nM
  TGI: 973 nM
HCT-116 colon
  GI50: 14.6 nM
  TGI: 153 nM
HCT-15 colon
  GI50: 17.8 nM
  TGI: 103 nM
HOP-62 NSCLC
  GI50: 13.3 nM
  TGI: 34.6 nM
HOP-92 NSCLC
  GI50: 35.1 nM
  TGI: 265 nM
HS 578T breast
  GI50: 11.8 nM
  TGI: 129 nM
HT29 colon
  GI50: 27.7 nM
  TGI: 106 nM
IGROV1 ovarian
  GI50: 125 nM
  TGI: 412 nM
K-562 leukemia
  GI50: 15 nM
  TGI: 116 nM
KM12 colon
  GI50: 11.5 nM
  TGI: 36.3 nM
LOX IMVI melanoma
  GI50: 20.3 nM
  TGI: 139 nM
M14 melanoma
  GI50: 17.5 nM
  TGI: 114 nM
MALME-3M melanoma
  GI50: 54.6 nM
  TGI: 191 nM
MCF7 breast
  GI50: 24.1 nM
  TGI: 225 nM
MDA-MB-231 breast
  GI50: 19.4 nM
  TGI: 106 nM
MDA-MB-435 melanoma
  GI50: 78.6 nM
  TGI: 230 nM
MDA-MB-468 breast
  GI50: 14.3 nM
  TGI: 34.3 nM
NCI-H226 lung
  GI50: 25.7 nM
  TGI: 128 nM
NCI-H23 lung
  GI50: 23.2 nM
  TGI: 90.1 nM
NCI-H322M lung
  GI50: 190 nM
  TGI: 572 nM
NCI-H522 lung
  GI50: 29.6 nM
  TGI: 162 nM
NCI/ADR-RES ovarian
  GI50: 480 nM
  TGI: 2000 nM
OVCAR-3 ovarian
  GI50: 65.3 nM
  TGI: 257 nM
OVCAR-4 ovarian
  GI50: 178 nM
  TGI: 482 nM
OVCAR-5 ovarian
  GI50: 44.7 nM
  TGI: 242 nM
OVCAR-8 ovarian
  GI50: 31.6 nM
  TGI: 145 nM
PC-3 prostate
  GI50: 60.5 nM
  TGI: 214 nM
RPMI-8226 leukemia
  TGI: 19.1 nM
RXF 393 renal
  GI50: 53.9 nM
  TGI: 197 nM
SF-268 CNS
  GI50: 24.9 nM
  TGI: 126 nM
SF-295 CNS
  GI50: 19 nM
  TGI: 51.7 nM
SF-539 CNS
  GI50: 13.5 nM
  TGI: 75.5 nM
SK-MEL-2 melanoma
  GI50: 51.9 nM
  TGI: 93.2 nM
SK-MEL-28 melanoma
  GI50: 93.8 nM
  TGI: 379 nM
SK-OV-3 ovarian
  GI50: 27.7 nM
  TGI: 138 nM
SN12C renal
  GI50: 15.7 nM
  TGI: 59.7 nM
SNB-75 CNS
  GI50: 33.4 nM
  TGI: 144 nM
SW-620 colon
  GI50: 13.2 nM
  TGI: 178 nM
T-47D breast
  GI50: 42.1 nM
  TGI: 296 nM
U251 glioblastoma
  GI50: 20.3 nM
  TGI: 105 nM
UACC-257 melanoma
  GI50: 138 nM
  TGI: 296 nM
UACC-62 melanoma
  GI50: 18 nM
  TGI: 123 nM
UO-31 renal
  GI50: 76 nM
  TGI: 209 nM
